How the values were obtained:
[1] = Clearance study, liver microsomes (human); conditions: pH 7.4
[2] = Clearance study, liver microsomes (rats); conditions: rat, pH 7.4
NSA mice = assay: Hypothermia study (block of CP 55,940-induced hypothermia); format: in vivo; design: Hypothermia 3 mg/kg / Hypothermia 0.3 mg/kg: unit not given here
Protocol: . […] Core body temperatures were then obtained at various time points following CP 55,940 administration. Core body temperature (to the nearest 0.1° C.) was obtained by rectal probe.

| Compound | microsomal CLint at 1 μM [1] [µL/min/mg] | microsomal CLint at 1 μM [2] [µL/min/mg] | Hypothermia 0.3 mg/kg (NSA mice) | Hypothermia 3 mg/kg (NSA mice) | Hypothermia ID50 (NSA mice; block of CP 55,940-induced hypothermia) [mg/kg] |
| --- | --- | --- | --- | --- | --- |
| O=C(NCCC(F)(F)F)c1ccc2c(c1)N=C(c1cccc(Cl)c1)c1ccccc1S2 [drawing 1721] | 18 | 40 |  |  |  |
| CC(CNC(=O)c1ccc2c(c1)N=C(C1CCCCC1)c1ccccc1S2)c1ccccc1 (stereo not drawn) [drawing 1769] | 125 | 267 |  |  |  |
| CCCCNC(=O)c1ccc2c(c1)N=C(c1ccc(Cl)cn1)c1ccc(F)cc1S2 [drawing 1778] | 29 | 227 |  |  |  |
| Cc1ccc(CNC(=O)c2ccc3c(c2)N=C(c2cccc(Cl)c2)c2ccccc2S3)o1 [drawing 1705] | 37 | 147 |  |  |  |
| CC(C)CNC(=O)c1ccc2c(c1)N=C(c1ccc(Cl)s1)c1ccc(F)cc1S2 [drawing 1793] | 32 | 49 |  |  |  |
| O=C(NCCCc1ccccc1)c1ccc2c(c1)N=C(c1cccc(Cl)c1)c1ccccc1S2 [drawing 1765] | 72 | 163 |  |  |  |
| O=C(NCc1cccc(Cl)c1)c1ccc2c(c1)N=C(N1CCCCC1)c1ccccc1[S+]2[O-] (stereo not drawn) [drawing 1774] | 90 | 416 |  |  |  |
| CCCCNC(=O)c1ccc2c(c1)N=C(c1ccc(Cl)cc1)c1cc(F)ccc1S2 [drawing 1702] | 12 | 74 |  |  |  |
| CCN(CCNC(=O)c1ccc2c(c1)N=C(C1CCCCC1)c1ccccc1S2)c1ccccc1 [drawing 1747] | 249 | 379 |  |  |  |
| CC(C)CNC(=O)c1ccc2c(c1)N=C(c1ccc(Cl)cn1)c1ccc(F)cc1S2 [drawing 1746] | 25 | 175 |  |  |  |
| O=C(NCCCC(F)(F)F)c1ccc2c(c1)N=C(c1ccc(Cl)cc1)c1ccccc1S2 [drawing 1703] | 13 | 86 |  |  |  |
| CCCCNC(=O)c1ccc2c(c1)N=C(c1ccc(Cl)cc1)c1cc(Cl)ccc1S2 [drawing 1688] | 13 | 52 |  |  |  |
| O=C(NCc1ccccc1)c1ccc2c(c1)N=C(C1CCCCC1)c1ccccc1S2 [drawing 1779] | 81 | 351 |  |  |  |
| CC(NC(=O)c1ccc2c(c1)N=C(c1ccc(Cl)cc1)c1ccccc1S2)c1ccccc1 (stereo not drawn) [drawing 1804] | 18 | 62 |  |  |  |
| CC(C)CNC(=O)c1ccc2c(c1)N=C(c1ccc(Cl)s1)c1ccc(Cl)cc1S2 [drawing 1679] | 5 | 56 |  |  |  |
| O=C(NCc1ccccc1Cl)c1ccc2c(c1)N=C(c1ccccc1)c1ccccc1S2 [drawing 1780] | 57 | 178 |  |  |  |
| Cc1cccc(C2=Nc3cc(C(=O)NCC(C)C)ccc3Sc3ccccc32)n1 [drawing 1692] | 35 | 204 |  |  |  |
| CC(C)CNC(=O)c1ccc2c(c1)N=C(c1ccc(Cl)cc1)c1ccc(F)cc1S2 [drawing 1657] | 11 | 63 |  |  |  |
| O=C(NN1CCCCC1)c1ccc2c(c1)N=C(N1CCCCC1)c1ccccc1S2 [drawing 1792] | 54 | 536 |  |  |  |
| Cc1csc(CNC(=O)c2ccc3c(c2)N=C(c2cccc(F)c2)c2ccccc2S3)c1 [drawing 1709] | 42 | 160 |  |  |  |
| CC(CNC(=O)c1ccc2c(c1)N=C(c1cccc(Cl)c1)c1ccccc1S2)c1ccccc1 (stereo not drawn) [drawing 1755] | 56 | 174 |  |  |  |
| Cc1ccc(CNC(=O)c2ccc3c(c2)N=C(c2ccc(F)cc2)c2ccccc2S3)o1 [drawing 1711] | 39 | 258 |  |  |  |
| CCCNC(=O)c1ccc2c(c1)N=C(c1ccc(Cl)cc1)c1ccccc1S2 [drawing 1588] |  |  | 29 | 54 |  |
| Cc1ccsc1C1=Nc2cc(C(=O)NCc3ccco3)ccc2Sc2ccccc21 [drawing 1639] |  |  |  | 30 |  |
| O=C(NN1CCCCC1)c1ccc2c(c1)N=C(c1ccc(F)cc1)c1ccccc1S2 [drawing 1582] |  |  | 7 | 87 | 0.96 |
| O=C(NC1CCC(F)(F)CC1)c1ccc2c(c1)N=C(c1ccc(Cl)s1)c1ccccc1S2 [drawing 1596] |  |  |  | 51 |  |
| CCCCNC(=O)c1cnc2c(n1)N=C(c1ccccc1)c1ccccc1S2 [drawing 1607] |  |  |  | 7 |  |
| O=C(NCc1ccco1)c1ccc2c(c1)N=C(c1ccc(Cl)s1)c1ccccc1S2 [drawing 1557] |  |  |  | 66 |  |
| O=C(NCc1cccc(Cl)c1)c1ccc2c(c1)N=C(c1ccc(Cl)cc1)c1cc(F)ccc1S2 [drawing 1583] |  |  | 14 | −4 |  |
| O=C(NCc1cccnc1)c1ccc2c(c1)N=C(c1cccc(Br)c1)c1ccccc1S2 [drawing 1641] |  |  | 0 | 56 |  |
